Results taken from patent publication US20250163104A1, “MACROCYCLIC IMMUNOMODULATORS” (priority 2021, published 2025).
pIC50: −log10 of the molar value. Where a SMILES comes first, the peptide text is derived from it. Bridges are numbered along the chain shown (N, C = ends). [ ]: non-standard residue; d: D form. The star is where a group is joined. Trp(βS-Me) = C[C@@H](c1c[nH]c2ccccc12)[C@H](N)C(=O)O; Phe(3-CF3) = N[C@@H](Cc1cccc(C(F)(F)F)c1)C(=O)O; Ala(morpholin-4-yl) = N[C@@H](CN1CCOCC1)C(=O)O; Phe(4-CONH2) = NC(=O)c1ccc(C[C@H](N)C(=O)O)cc1; Phe(4-COOH) = N[C@@H](Cc1ccc(C(=O)O)cc1)C(=O)O; Bip = N[C@@H](Cc1ccc(-c2ccccc2)cc1)C(=O)O; Phe(4-CN) = N#Cc1ccc(C[C@H](N)C(=O)O)cc1; Phe(3-Me) = Cc1cccc(C[C@H](N)C(=O)O)c1; Val(3-OH) = CC(C)(O)[C@H](N)C(=O)O; 4Pal = N[C@@H](Cc1ccncc1)C(=O)O; Cha = N[C@@H](CC1CCCCC1)C(=O)O; Cit = NC(=O)NCCC[C@H](N)C(=O)O; Carboxymethyl = O=C(O)C*; Nle = CCCC[C@H](N)C(=O)O; Orn = NCCC[C@H](N)C(=O)O; Dab = NCC[C@H](N)C(=O)O; Dap = NC[C@H](N)C(=O)O; Piv = CC(C)(C)C(=O)*

target: T1, human PD-1 / PD-L1-Ig binding on Jurkat cell line over-expressing human PD-1 (Jurkat-PD-1) (Homo sapiens, UniProt Q15116); assay: Jurkat-PD-1 Cell Binding High-Content Screening Assay (CBA); format: cell-based; details: Jurkat-PD-1 cells, PE-labeled PD-L1-Ig 20 nM final; read-out: Jurkat HPD1_PDL1 IC50
T1 construct: expressed in transfected cells; host or cells: Jurkat
T1 sequence (Q15116 25-288): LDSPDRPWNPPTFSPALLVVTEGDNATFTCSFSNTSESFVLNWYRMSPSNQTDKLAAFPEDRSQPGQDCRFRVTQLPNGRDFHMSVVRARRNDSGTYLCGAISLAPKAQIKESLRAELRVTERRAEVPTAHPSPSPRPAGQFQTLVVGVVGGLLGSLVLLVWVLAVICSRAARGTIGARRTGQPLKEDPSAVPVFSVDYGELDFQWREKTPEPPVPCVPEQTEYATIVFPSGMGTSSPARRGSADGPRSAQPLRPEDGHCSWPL
Outline: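 PE-PD-L1-Ig 20 nM final; cells in DMEM/10% FCS; cpd pre-incubation 2 h, 37° C; ligand 1 h; PFA fix + Hoechst 33342; high-content imaging read-out.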

| pIC50 | Structure (SMILES) |
| --- | --- |
| 8.14 | Cc1cccc(C[C@@H]2NC(=O)[C@H](CC(=O)O)NC(=O)[C@H](Cc3ccc(OCC(=O)O)cc3)NC(=O)[C@H](Cc3ccc(C(N)=O)cc3)NC(=O)CSC[C@@H](C(=O)N[C@@H](CCN)C(N)=O)NC(=O)[C@H](CCC(N)=O)NC(=O)[C@H](C(C)(C)O)NC(=O)[C@H](CC3CCCCC3)NC(=O)[C@H](CCN)NC(=O)[C@@H](CC(C)C)NC(=O)[C@H](CCCN)NC(=O)[C@H](Cc3ccc(OCC(=O)O)cc3)NC(=O)[C@H](Cc3ccc(-c4ccccc4)cc3)NC(=O)[C@H](Cc3ccc(OCC(=O)O)cc3)NC2=O)c1 [Compound 2069] ({CH2CO}-[Phe(4-CONH2)]Y(Carboxymethyl)D[Phe(3-Me)]Y(Carboxymethyl)[Bip]Y(Carboxymethyl)[Orn][dL][Dab][Cha][Val(3-OH)]QC[Dab]-NH2; thioether N-14) |
| 7.89 | Cc1cccc(C[C@@H]2NC(=O)[C@H](CC(=O)O)NC(=O)[C@H](Cc3ccc(OCC(=O)O)cc3)NC(=O)[C@H](Cc3ccncc3)NC(=O)CSC[C@@H](C(=O)N[C@@H](CCN)C(N)=O)NC(=O)[C@H]([C@@H](C)O)NC(=O)[C@H](C(C)C)NC(=O)[C@H](CC3CCCCC3)NC(=O)[C@H](CCNC(=O)C(C)(C)C)NC(=O)[C@@H](CC(C)C)NC(=O)[C@H](CCN)NC(=O)[C@H](Cc3ccc(OCC(=O)O)cc3)NC(=O)[C@H](Cc3ccc(-c4ccccc4)cc3)NC(=O)[C@H](Cc3ccc(OCC(=O)O)cc3)NC2=O)c1 [Compound 2062] ({CH2CO}-[4Pal]Y(Carboxymethyl)D[Phe(3-Me)]Y(Carboxymethyl)[Bip]Y(Carboxymethyl)[Dab][dL][Dab](Piv)[Cha]VTC[Dab]-NH2; thioether N-14) |
| 6.98 | CC(C)C[C@H]1NC(=O)[C@H](CCCN)NC(=O)[C@H](Cc2ccc(C(=O)O)cc2)NC(=O)[C@H](Cc2ccc(-c3ccccc3)cc2)NC(=O)[C@H](Cc2ccc(C(=O)O)cc2)NC(=O)[C@H](Cc2cccc(C(F)(F)F)c2)NC(=O)[C@H](CC(N)=O)NC(=O)[C@H](Cc2ccc(C(=O)O)cc2)NC(=O)[C@H](CN2CCOCC2)NC(=O)CSC[C@@H](C(=O)N[C@@H](CCN)C(N)=O)NC(=O)[C@H](CCC(=O)O)NC(=O)[C@H](C(C)C)NC(=O)[C@H](CC2CCCCC2)NC(=O)[C@H](CCN)NC1=O [Example 2722] ({CH2CO}-[Ala(morpholin-4-yl)][Phe(4-COOH)]N[Phe(3-CF3)][Phe(4-COOH)][Bip][Phe(4-COOH)][Orn][dL][Dab][Cha]VEC[Dab]-NH2; thioether N-14) |
| 8.39 | Cc1cccc(C[C@@H]2NC(=O)[C@H](CC(=O)O)NC(=O)[C@H](Cc3ccc(C(=O)O)cc3)NC(=O)[C@H](Cc3ccncc3)NC(=O)CSC[C@@H](C(=O)N[C@@H](CC(N)=O)C(N)=O)NC(=O)[C@H](CO)NC(=O)[C@H](C(C)C)NC(=O)[C@H](CC3CCCCC3)NC(=O)[C@H](CCN)NC(=O)[C@@H](CC(C)C)NC(=O)[C@H](CCCN)NC(=O)[C@H](Cc3ccc(O)cc3)NC(=O)[C@H](Cc3ccc(-c4ccccc4)cc3)NC(=O)[C@H](Cc3ccc(O)cc3)NC2=O)c1 [Compound 2284] ({CH2CO}-[4Pal][Phe(4-COOH)]D[Phe(3-Me)]Y[Bip]Y[Orn][dL][Dab][Cha]VSCN-NH2; thioether N-14) |
| 7.60 | CC(C)C[C@H]1NC(=O)[C@H](CCCN)NC(=O)[C@H](Cc2ccc(C(=O)O)cc2)NC(=O)[C@H](Cc2ccc(-c3ccccc3)cc2)NC(=O)[C@H]([C@@H](C)c2c[nH]c3ccccc23)NC(=O)[C@H](Cc2cccc(C(F)(F)F)c2)NC(=O)[C@H](CC(=O)O)NC(=O)[C@H](Cc2ccc(C(=O)O)cc2)NC(=O)[C@H](CN2CCOCC2)NC(=O)CSC[C@@H](C(=O)N[C@@H](CCN)C(N)=O)NC(=O)[C@H](CCC(=O)O)NC(=O)[C@H](C(C)C)NC(=O)[C@H](CC2CCCCC2)NC(=O)[C@H](CCN)NC1=O [Example 2748] ({CH2CO}-[Ala(morpholin-4-yl)][Phe(4-COOH)]D[Phe(3-CF3)][Trp(βS-Me)][Bip][Phe(4-COOH)][Orn][dL][Dab][Cha]VEC[Dab]-NH2; thioether N-14) |
| 7.70 | CC(C)C[C@H]1NC(=O)[C@H](CCCN)NC(=O)[C@H](CCC(=O)O)NC(=O)[C@H](Cc2ccc(-c3ccccc3)cc2)NC(=O)[C@H](C(C)C)NC(=O)[C@H](Cc2cccc(C(F)(F)F)c2)NC(=O)[C@H](CC(=O)O)NC(=O)[C@H](Cc2ccc(O)cc2)NC(=O)[C@H](CC(N)=O)NC(=O)CSC[C@@H](C(=O)N[C@@H](C)C(N)=O)NC(=O)[C@H]([C@@H](C)O)NC(=O)[C@H](C(C)C)NC(=O)[C@H](CC2CCCCC2)NC(=O)[C@H](CCN)NC1=O [Compound 1457] ({CH2CO}-NYD[Phe(3-CF3)]V[Bip]E[Orn][dL][Dab][Cha]VTCA-NH2; thioether N-14) |

Continued, molecule first:

| Structure (SMILES) | pIC50 |
| --- | --- |
| CC(C)C[C@@H]1NC(=O)[C@H](Cc2c[nH]c3ccccc23)NC(=O)[C@H](CC(=O)O)NC(=O)[C@H](Cc2ccncc2)NC(=O)[C@H](CN)NC(=O)CSC[C@@H](C(=O)NCC(N)=O)NC(=O)[C@H](CO)NC(=O)[C@H](C(C)C)NC(=O)[C@H](CC(C)C)NC(=O)[C@H](CC(N)=O)NC(=O)[C@@H](CC(C)C)NC(=O)[C@H](CCCN)NC(=O)[C@H](C(C)C)NC(=O)[C@H](Cc2ccc(-c3ccccc3)cc2)NC1=O [Compound 1285] ({CH2CO}-[Dap][4Pal]DWL[Bip]V[Orn][dL]NLVSCG-NH2; thioether N-14) | 7.37 |
| CC[C@H](C)[C@@H]1NC(=O)[C@H](Cc2ccc(-c3ccccc3)cc2)NC(=O)[C@H](C(C)C)NC(=O)[C@H](Cc2c[nH]c3ccccc23)NC(=O)[C@H](CC(=O)O)NC(=O)[C@H](Cc2ccc(O)cc2)NC(=O)[C@H](CN)NC(=O)CSC[C@@H](C(=O)N[C@@H](C)C(N)=O)NC(=O)[C@H]([C@@H](C)O)NC(=O)[C@H](C(C)C)NC(=O)[C@H](CC(C)C)NC(=O)[C@H](CCCNC(=N)N)NC(=O)[C@@H](CC(C)C)NC(=O)[C@H](CCCN)NC1=O [Compound 1141] ({CH2CO}-[Dap]YDWV[Bip]I[Orn][dL]RLVTCA-NH2; thioether N-14) | 7.51 |
| CNC[C@@H]1NC(=O)CSC[C@@H](C(=O)N[C@@H](C)C(N)=O)NC(=O)[C@H](C(C)O)NC(=O)[C@H](C(C)C)NC(=O)[C@H](CC2CCCCC2)NC(=O)[C@H](CCN)NC(=O)[C@@H](CC(C)C)NC(=O)[C@H](CCCN)NC(=O)[C@H](C(C)C)NC(=O)[C@H](Cc2ccc(-c3ccccc3)cc2)NC(=O)[C@H](C(C)C)NC(=O)[C@H](Cc2c[nH]c3ccccc23)NC(=O)[C@H](CC(=O)O)NC(=O)[C@H](Cc2ccc(OCC(=O)O)cc2)NC1=O (stereo partly drawn) [Compound 2515] | 7.79 |
| CC(C)C[C@H]1NC(=O)[C@H](CCCN)NC(=O)[C@H](CCCNC(N)=O)NC(=O)[C@H](Cc2ccc(-c3ccccc3)cc2)NC(=O)[C@H](C(C)C)NC(=O)[C@H](Cc2c[nH]c3ccccc23)NC(=O)[C@H](CC(=O)O)NC(=O)[C@H](Cc2ccc(C#N)cc2)NC(=O)[C@H](CN)NC(=O)CSC[C@@H](C(=O)N[C@@H](C)C(N)=O)NC(=O)[C@H]([C@@H](C)O)NC(=O)[C@H](C(C)C)NC(=O)[C@H](CC2CCCCC2)NC(=O)[C@H](CCN)NC1=O [Compound 2101] ({CH2CO}-[Dap][Phe(4-CN)]DWV[Bip][Cit][Orn][dL][Dab][Cha]VTCA-NH2; thioether N-14) | 8.18 |
| CCCC[C@@H]1NC(=O)[C@H](CCN)NC(=O)[C@@H](CC(C)C)NC(=O)[C@H](CCCN)NC(=O)[C@H](CCCNC(N)=O)NC(=O)[C@H](Cc2ccc(-c3ccccc3)cc2)NC(=O)[C@H](C(C)C)NC(=O)[C@H](Cc2c[nH]c3ccccc23)NC(=O)[C@H](CC(=O)O)NC(=O)[C@H](Cc2ccc(O)cc2)NC(=O)[C@H](CC(N)=O)NC(=O)CSC[C@@H](C(=O)N[C@@H](C)C(N)=O)NC(=O)[C@H]([C@@H](C)O)NC(=O)[C@H](C(C)C)NC1=O [Compound 1162] ({CH2CO}-NYDWV[Bip][Cit][Orn][dL][Dab][Nle]VTCA-NH2; thioether N-14) | 6.48 |
| CC(C)C[C@H]1NC(=O)[C@H](CCCN)NC(=O)[C@H](CCC(=O)O)NC(=O)[C@H](Cc2ccc(-c3ccccc3)cc2)NC(=O)[C@H](C(C)C)NC(=O)[C@H](Cc2c[nH]c3ccccc23)NC(=O)[C@H](CC(=O)O)NC(=O)[C@H](Cc2ccc(C#N)cc2)NC(=O)[C@H](CN)NC(=O)CSC[C@@H](C(=O)N[C@@H](C)C(N)=O)NC(=O)[C@H]([C@@H](C)O)NC(=O)[C@H](C(C)C)NC(=O)[C@H](CC2CCCCC2)NC(=O)[C@H](CCN)NC1=O [Compound 2187] | 7.88 |
| CCC[C@@H]1NC(=O)[C@H](Cc2ccc(-c3ccccc3)cc2)NC(=O)[C@H](C(C)C)NC(=O)[C@H](Cc2c[nH]c3ccccc23)NC(=O)[C@H](CC(=O)O)NC(=O)[C@H](Cc2ccc(C(=O)O)cc2)NC(=O)[C@H](Cc2ccncc2)NC(=O)CSC[C@@H](C(=O)N[C@@H](C)C(N)=O)NC(=O)[C@H]([C@@H](C)O)NC(=O)[C@H](C(C)C)NC(=O)[C@H](CC2CCCCC2)NC(=O)[C@H](Cc2cnc[nH]2)NC(=O)[C@@H](CC(C)C)NC(=O)[C@H](CCCN)NC1=O [Compound 1623] | 7.57 |
| CC(C)C[C@H]1NC(=O)[C@H](CCCN)NC(=O)[C@H](CCC(=O)O)NC(=O)[C@H](Cc2ccc(-c3ccccc3)cc2)NC(=O)[C@H](C(C)C)NC(=O)[C@H](Cc2c[nH]c3ccccc23)NC(=O)[C@H](CC(=O)O)NC(=O)[C@H](Cc2ccc(N)cc2)NC(=O)[C@H](Cc2ccncc2)NC(=O)CSC[C@@H](C(=O)N[C@@H](C)C(N)=O)NC(=O)[C@H]([C@@H](C)O)NC(=O)[C@H](C(C)C)NC(=O)[C@H](CC2CCCCC2)NC(=O)[C@H](CCN)NC1=O [Compound 2184] | 7.55 |
| CC(C)C[C@@H]1NC(=O)[C@H](CCN)NC(=O)[C@@H](CC(C)C)NC(=O)[C@H](CCCN)NC(=O)[C@H](CCCNC(N)=O)NC(=O)[C@H](Cc2ccc(-c3ccccc3)cc2)NC(=O)[C@H](C(C)C)NC(=O)[C@H](Cc2c[nH]c3ccccc23)NC(=O)[C@H](CC(=O)O)NC(=O)[C@H](Cc2ccncc2)NC(=O)[C@H](Cc2ccc(OCC(=O)O)cc2)NC(=O)CSC[C@@H](C(=O)N[C@@H](C)C(N)=O)NC(=O)[C@H]([C@@H](C)O)NC(=O)[C@H](C(C)C)NC1=O [Compound 1323] ({CH2CO}-Y(Carboxymethyl)[4Pal]DWV[Bip][Cit][Orn][dL][Dab]LVTCA-NH2; thioether N-14) | 7.53 |
